Data taken from US20100209513A1, “PHARMACEUTICAL COMPOSITION CONTAINING MICRONIZED PARTICLES OF NAPHTHOQUINONE-BASED COMPOUND” (priority 2007, published 2010).

How the values were obtained:
[1] = Body weight change in ob/ob mice given suspensions of cryptotanshinone powder or micronized particles (Example 6); assay type: in vivo; conditions: ob/ob male mice; 400 mg/kg PO once a day
Method: 1 g of a simply finely-divided powder of cryptotanshinone, and 1 g of each micronized particles of cryptotanshinone compound according to the procedures of Examples 1 to 3 were mixed with 10 mL of distilled water, and the resulting mixtures were processed in a sonicator for 30 min to prepare suspensions of the cryptotanshinone compounds. 400 mg/kg of these suspensions in terms of cryptotanshinone content was administered to ob/ob mice once a day and changes in the body weight (BW) of animals were examined.
For this purpose, 10-week-old ob/ob male mice (Jackson Lab) as an obese mouse model of type 2 diabetes were purchased from Orient Co., Ltd., Korea and were allowed to acclimate to a new environment of the breeding room for 10 days prior to experiments. Animals were fed a solid feed (P5053, Labdiet) as a laboratory animal chow. The ob/ob male mice were housed and allowed to acclimate to a new environment for 10 days, in a breeding room maintained at a temperature of 22±2° C., humidity of 55±5%, and a 12-h light/dark (L/D) cycle (light from 8:00 a.m. to 8:00 p.m.). […]

[2] = Dissolution test, paddle method (Example 15); assay type: physicochemical; conditions: for Change of dissolution rate of micronized particles compared to before micronization: different time points, FIGS. 3 to 6, pH 6.8, 1.5% Tween 80, 37° C.; for Dissolution rate of 12 hours after microparticulation / Dissolution rate of 12 hours before microparticulation: paddle 75 rpm, 37° C., pH 6.8, 1.5% Tween 80; for Dissolution rate of 12 hours after microparticulation: after microparticulation (Jet mill or ball mill, no surfactant); for Increasing rate of dissolution rate of 12 hours: after versus before microparticulation
Method: Dissolution test was commonly carried out under the following condition.
(§1) The dissolution test was carried out according to the paddle method of Korean Phramacopeia. The paddle rate was 75 rpm, the temperature of an effluent was 37° C., and a test solution was a mixture solution of pH 6.8, 1.5% Tween 80. First, the test solution was filtered through a […] Membrane filter and centrifuged. Supernatant fluid was taken, and the content of drug was analyzed by HPLC, and the amount of released drug was measured at different time points. The drugs used for the dissolution test are Compounds 1, 5, 44 and 51 provided in Table 1, and the extract set forth in the Korean Patent No. 10-818586 which contains Compound 58 over 60 wt % (‘Compound 58 Extract’). Microparticulation was carried out using Jet mill or ball mill without any surfactant. The particle size of compounds was determined by HELOS measurement.

[3] = Particle size before and after micronization, HELOS measurement (Example 15); assay type: physicochemical; conditions: for Particle size X50 after micronization / Particle size X90 after micronization: after micronization by Jet mill or ball mill without surfactant
Method: as §1
Measurement of the particle size was carried out by putting approximately 3 ml of a sample into a cell for particle size measurement and measuring the particle size during 60 seconds per sample. The particle sizes before and after micronization are provided below.

[4] = Body weight change in DIO (diet-induced obesity) SD rats with varying dosages of micronized cryptotanshinone (Example 7); assay type: in vivo; conditions: for BW loss / Final BW: high-fat diet, Jet mill-micronized with 0.2% SLS
Method: Each of formulations composed of a mixture of Jet mill-micronized cryptotanshinone at 25 mg/kg, 50 mg/kg and 100 mg/kg with 0.2% (w/w) sodium lauryl sulfate was administered daily for 28 days to DIO (diet-induced obesity) SD rats in which obesity was caused by high-fat diet for 4 weeks. As a control, a surfactant SLS at a concentration of 0.2% was suspended in distilled water and a suspension was then administered to animals.

[5] = Particle size of micronized particles prepared in Examples 1 to 5; assay type: physicochemical; conditions: cryptotanshinone prior to supercritical micronization
Method: In order to develop a supercritical micronization process, 5 g of cryptotanshinone having a particle size distribution of 1 to 100 μm and an average particle size of 30 μm, and 0.5 g of sodium lauryl sulfate were dissolved in 45 mL of methylene chloride. Thereafter, the resulting solution of cryptotanshinone in methylene chloride was injected at a flow rate of 1 to 2 mL/min via a nozzle orifice with a diameter of 1/16 inch into a reaction vessel which was set to a temperature of 30° C., 80 bar, and 2,000 rpm and was filled with liquefied carbon dioxide, whereas carbon dioxide was injected at a flow rate of 10 to 20 mL/min via a nozzle orifice with a diameter of 1/16 inch using an ISCO pump.
In order to recover precipitates of small-sized particles from the liquid carbon dioxide solution as an insoluble solvent in the reaction vessel, a volume of carbon dioxide which is 15-fold that of the reaction vessel was flowed to remove the remaining organic solvent and the pressure of the reaction vessel was reduced to recover micronized particles of cryptotanshinone. […]
Micronizing of cryptotanshinone was carried out using a Jet mill (SJ-100, Nisshin, Japan). […] Micronized particles were recovered and a particle size was determined in terms of particle diameter by […]. […]

| Compound | Final BW [1] | Change of dissolution rate of micronized particles compared to before micronization [2] | Dissolution rate of 12 hours after microparticulation [2] | Dissolution rate of 12 hours before microparticulation [2] | Particle size X50 after micronization [3] | Particle size X90 after micronization [3] | Particle size X50 before micronization [3] | Particle size X90 before micronization [3] | Loss of body weight compared to the control group ([4]; 25, 50 and 100 mg/kg daily for 28 days, concentration-dependent) | BW loss ([4]; 25 mg/kg daily for 28 days) | Final BW ([4]; 25 mg/kg daily for 28 days) | BW loss ([4]; 50 mg/kg daily for 28 days) | Final BW ([4]; 50 mg/kg daily for 28 days) | BW loss ([4]; 100 mg/kg daily for 28 days) | Final BW ([4]; 100 mg/kg daily for 28 days) | Average particle size [5] | Increasing rate of dissolution rate of 12 hours [2] |
| --- | --- | --- | --- | --- | --- | --- | --- | --- | --- | --- | --- | --- | --- | --- | --- | --- | --- |
| C[C@H]1COC2=C1C(=O)C(=O)c1c2ccc2c1CCCC2(C)C [Simply finely-divided cryptotanshinone, cryptotanshinone] | 57.5 ± 1.3 g |  |  |  |  |  |  |  |  |  |  |  |  |  |  |  |  |
| Cc1cc2c(c3ccccc13)C(=O)C(=O)C1=C2OC(C)C1(C)C (stereo not drawn) [Compound 51] |  | increased significantly | 51.3% | 24.08% | X50 = 3.05 μm | X90 = 13.48 μm | X50 = 5.08 μm | X90 = 21.97 μm |  |  |  |  |  |  |  |  |  |
| cryptotanshinone [Compound 58] |  |  |  |  |  |  |  |  | significant loss of body weight | 16.9 ± 3.8% | 589.0 ± 50.4 g | 15.4 ± 3.7% | 578.8 ± 54.6 g | 6.2 ± 5.5% | 529.8 ± 59.1 g | 30 μm |  |
| CC1(C)CCC2=C(O1)c1ccccc1C(=O)C2=O [Compound 1, 7,8-dihydro-2,2-dimethyl-2H-naphtho(2,3-b)dihydropyran-7,8-dione] |  | increased significantly | 95.52% | 67.19% | X50 = 2.39 μm | X90 = 5.03 μm | X50 = 27.83 μm | X90 = 33.74 μm |  |  |  |  |  |  |  |  | 42% |
| CC1OC2=C(C(=O)C(=O)c3c2ccc2c3CCCC2)C1(C)C (stereo not drawn) [Compound 44] |  | increased significantly | 41.05% | 13.81% | X50 = 2.41 μm | X90 = 24.57 μm | X50 = 3.15 μm | X90 = 22.41 μm |  |  |  |  |  |  |  |  |  |
| CC1CC2=C(O1)c1ccccc1C(=O)C2=O (stereo not drawn) [Compound 5] |  | increased significantly | 86.12% | 78.12% | X50 = 2.48 μm | X90 = 5.38 μm | X50 = 3.61 μm | X90 = 20.09 μm |  |  |  |  |  |  |  |  | 10% |
